One assay deals with CD4 D1D2. Briefly: SPR cross-inhibition: ⍺4β7 binding to immobilized CD4 D1D2 after preincubation of the surface with CD4 mAbs. The settings on record: surface preincubated with mAb, Fig 8C. The text has this: Fig 8 Mutating a gp120 contact site in CD4 D1 abrogates CD4-⍺4β7 interactions. (A) Positions of amino acid substitutions introduced into D1D2-Ig⍺tp are indicated on a space-filling model of CD4 D1D2. Substitutions at S42/F43 in D1 (green) and K171 in D2 (purple) are shown. Approximate locations of mAb Leu3A and ibalizumab epitopes are indicated. (B) Flow-cytometric analysis of increasing amounts of D1D2-Ig⍺tp and mutant derivatives binding to ⍺4β7 on CD8^+ T cells. Y-axis indicates % cells bound. (C) SPR analysis of soluble ⍺4β7 binding to a D1D2 coated surface following preincubation of the surface with ibalizumab (red), mAb Leu3A (light green), or ⍺4β7 (dark green). Y-axis indicates the mass of soluble ⍺4β7 bound at the end of the association phase. Mass of prebound inhibitors is subtracted. (D) Flow-cytometric analysis of unlabeled gp120 inhibiting PE labeled D1D2-Ig⍺tp binding to ⍺4β7 on CD8^+ T cells. The integrin ⍺4 antagonist FG was employed as a control. Y-axis indicates MFI.
Experiments were performed using a Biacore 3000 instrument (Cytiva Life Sciences) using CM4 or CM5 sensor chips. The data were evaluated using BIAevaluation 4.1.1 software (Cytiva Life Sciences). […] The ability of each analyte to inhibit either itself or ⍺4β7 was determined by comparing the binding of ⍺4β7 in the absence or presence of the listed pre-bound analytes as previously described. […]

In assay [1] the test system is ⍺4β7 on primary CD8^+ T cells. The experiment in a line: Flow cytometry: FAM-conjugated pCD4^165-178 binding to RA-treated primary CD8^+ T cells. Also on record: species or system human. The note with it: FAM-Ttds-labelled peptide 1.25 μg/200,000 cells in 100 μl; MnCl2; 3 independent experiments. The text has this:
To further investigate the interaction between pCD4^165-178 and ⍺4β7 we attached a fluorescein dye to its amino terminus via a trioxatridecan-succinamic acid (Ttds) linker (Fig 5A). A scrambled pCD4^165-178 was employed as a control. […] FIB504 and vedolizumab inhibited binding by ~50%. This inhibition pattern resembles the one we obtained when inhibiting D1D2-Ig⍺tp with the same antagonists (Fig 3). We conclude that the CD4 D2 G β-strand binds directly to the headpiece region of ⍺4β7 in a cation dependent manner. Support for this conclusion, in the form of site directed mutagenesis within the D2 G β-strand is provided below.
Fig 5 Direct binding of pCD4^165-178 to ⍺4β7 on primary T cells. (A) Sequence of FAM -conjugated pCD4^165-178 and a scrambled derivative (FAM-scr pCD4^165-178). (B) Flow-cytometry derived histogram of pCD4^165-178 binding to RA -cultured CD8^+ T cells. pCD4^165-178 in the presence (green), or absence of Mn^++(black). Unstained cells are shown (grey). (C) Binding of pCD4^165-178 and its scrambled derivative to CD8^+ T cells in the presence of MnCl2 as in panel B, and in the presence of ⍺4 and ⍺4β7 antagonists, as indicated. Y-axis indicates % cells bound. Error bars represent standard error from 3 independent experiments.
Cells were stained with fluoresceine conjugated mAbs or recombinant proteins using standard procedures preceded by Fc receptor blocking with human IgG. Buffers used were 10 mM HEPES 150 mM NaCl (HBS Buffer) with 100 μM CaCl2. 1 mM MnCl2 was also included, unless otherwise specified. Buffer without divalent cations included 0.1 mM EDTA. Unlabeled mAb or protein inhibitors were preincubated with cells or proteins at a 5X molar excess for 15 min on ice. FAM labeled peptides were used at 1.25 μg/ 200,000 cells in a 100 μl volume. Data were acquired using a FACSCanto II (BD Biosciences) and analyzed with FlowJo software (BD Biosciences). Plotted MFI values represent absolute values.

In assay [2] the test system is ⍺4β7 on RPMI8866 cells. The experiment in a line: Flow cytometry: MAdCAM-Ig staining of RPMI8866 cells with ⍺4 and β7 antagonists. It is filed as binding, human. The settings on record: antagonist at 1 μg/ml. The text has this: (§1) Several mAbs and small molecule antagonists of ⍺4β7 and ⍺4β1 have been developed to treat diseases, including IBD and MS. […] Vedolizumab and etrolizumab are β7 mAbs, based on murine mAbs Act-1 and FIB504, respectively. Both are used to treat IBDs, [50, 51]. Natulizumab is an ⍺4 specific humanized version of the mouse mAb HP2/1 used to treat Multiple Sclerosis (MS). […] To determine whether these antagonists block CD4 binding to α4β7, we stained RPMI8866 cells with D1D2-Ig⍺tp in the absence or presence of increasing concentrations of each (Fig 3).
(§2) Y-axis indicates gMFI. Dashed and solid lines represent gMFI of D1D2-Ig⍺tp and MAdCAM-Ig respectively, in the absence of any antagonist.
(§3) Cells were stained with fluoresceine conjugated mAbs or recombinant proteins using standard procedures preceded by Fc receptor blocking with human IgG. Buffers used were 10 mM HEPES 150 mM NaCl (HBS Buffer) with 100 μM CaCl2. 1 mM MnCl2 was also included, unless otherwise specified.
(A flow cytometer gives signals particle by particle.)

The subject of assay [3] is ⍺4β7 on RPMI8866 cells. The experiment in a line: Flow cytometry: D1D2-Ig⍺tp staining of RPMI8866 cells with ⍺4 and β7 antagonists. In kind it is binding, human. The note with it: antagonist at 10 μg/ml, 1 mM MnCl2.
Description: as §1, §2, §3

The text below walks through data of article PMC10732398 (PLOS Pathogens, 2023).

Ibalizumab: CD4 D2 mAb: the “inhibition of ⍺4β7 binding to surface immobilized CD4 D1D2 (in words)” value in the assay on CD4 D1D2 was “failed to inhibit”.
Take “Vedolizumab: β7 mAb based on murine mAb Act-1”: the “reduction of pCD4^165-178 binding to CD8^+ T cells” value in assay [1] is reported as ~ 50%. Also, the “inhibition of MAdCAM-Ig binding (in words)” value with ⍺4β7 on RPMI8866 cells [2] was “blocked MAdCAM-Ig efficiently”. Also, in the assay on ⍺4β7 on RPMI8866 cells [3], the “reduction of D1D2-Ig⍺tp binding” value is ~ 50%.
